Assay results: the NIST ThermoML archive (doi:10.1016/j.fluid.2013.05.001)
Several values for one entry are separate records, joined by “and”; a condition that tells them apart may be missing. Equal entries are not always repeated.

Legend:
[1] = mn = molality of the nth substance listed, in mol/kg; conditions: 85.9 kPa, Liquid, Vibrating tube method
[2] = 298.15 K, 85.9 kPa, Liquid; for viscosity: Capillary tube (Ostwald / Ubbelohde) method; for mass density: Vibrating tube method
[3] = refractive index (Na D-line) (dimensionless); conditions: 298.15 K; 85.9 kPa; Liquid; Standard Abbe refractometry

CC(=O)Nc1ccc(OC(=O)c2ccccc2O)cc1 [salophen] + C1CCOC1
mass density, [1]
Conditions	m1 = 0.0103	m1 = 0.0316	m1 = 0.0496	m1 = 0.0699	m1 = 0.0908	m1 = 0.1099	m1 = 0.1293	m1 = 0.1498	m1 = 0.1704
288.15 K	893.79 kg/m3 and 882.94 kg/m3	884.82 kg/m3 and 895.65 kg/m3	886.39 kg/m3 and 897.21 kg/m3	888.13 kg/m3 and 898.95 kg/m3	889.9 kg/m3 and 900.71 kg/m3	891.51 kg/m3 and 902.31 kg/m3	893.11 kg/m3 and 903.88 kg/m3	894.79 kg/m3 and 905.55 kg/m3	896.46 kg/m3 and 907.21 kg/m3
308.15 K	871.92 kg/m3	873.82 kg/m3	875.41 kg/m3	877.17 kg/m3	878.97 kg/m3	880.59 kg/m3	882.21 kg/m3	883.9 kg/m3	885.6 kg/m3
318.15 K	860.78 kg/m3	862.7 kg/m3	864.3 kg/m3	866.08 kg/m3	867.89 kg/m3	869.54 kg/m3	871.17 kg/m3	872.89 kg/m3	874.58 kg/m3

CC(=O)Nc1ccc(OC(=O)c2ccccc2O)cc1 [salophen] + CC(=O)N(C)C
mass density, [1]
Conditions	m1 = 0.0106	m1 = 0.0323	m1 = 0.0497	m1 = 0.0704	m1 = 0.0899	m1 = 0.1092	m1 = 0.129	m1 = 0.1492	m1 = 0.1742
288.15 K	946.52 kg/m3 and 937.32 kg/m3	938.87 kg/m3 and 948.07 kg/m3	940.11 kg/m3 and 949.32 kg/m3	941.6 kg/m3 and 950.78 kg/m3	942.99 kg/m3 and 952.18 kg/m3	944.36 kg/m3 and 953.53 kg/m3	945.78 kg/m3 and 954.93 kg/m3	947.22 kg/m3 and 956.35 kg/m3	949.07 kg/m3 and 958.13 kg/m3
308.15 K	928.08 kg/m3	929.62 kg/m3	930.86 kg/m3	932.36 kg/m3	933.77 kg/m3	935.17 kg/m3	936.59 kg/m3	938.07 kg/m3	939.94 kg/m3
318.15 K	918.85 kg/m3	920.4 kg/m3	921.65 kg/m3	923.15 kg/m3	924.58 kg/m3	925.99 kg/m3	927.42 kg/m3	928.91 kg/m3	930.75 kg/m3

CC(=O)Nc1ccc(OC(=O)c2ccccc2O)cc1 [salophen] + C[S+](C)[O-]
mass density, [1]
Conditions	m1 = 0.0099	m1 = 0.0307	m1 = 0.0493	m1 = 0.07	m1 = 0.0911	m1 = 0.1086	m1 = 0.1311	m1 = 0.1483	m1 = 0.1717
288.15 K	1105.64 kg/m3 and 1095.61 kg/m3	1096.3 kg/m3 and 1106.33 kg/m3	1096.92 kg/m3 and 1106.94 kg/m3	1097.62 kg/m3 and 1107.62 kg/m3	1098.35 kg/m3 and 1108.33 kg/m3	1098.97 kg/m3 and 1108.91 kg/m3	1099.71 kg/m3 and 1109.66 kg/m3	1100.31 kg/m3 and 1110.22 kg/m3	1101.12 kg/m3 and 1111 kg/m3
308.15 K	1085.58 kg/m3	1086.29 kg/m3	1086.93 kg/m3	1087.63 kg/m3	1088.38 kg/m3	1089 kg/m3	1089.77 kg/m3	1090.36 kg/m3	1091.18 kg/m3
318.15 K	1075.56 kg/m3	1076.29 kg/m3	1076.95 kg/m3	1077.68 kg/m3	1078.44 kg/m3	1079.07 kg/m3	1079.87 kg/m3	1080.47 kg/m3	1081.32 kg/m3

C[S+](C)[O-] [dimethyl sulfoxide]
Conditions	mass density [kg/m3]	refractive index	viscosity [mPa·s]
[2]	1095.29	–	1.867
[3]	–	1.4762	–

C1COCCO1 [1,4-dioxane]
Conditions	mass density [kg/m3]	refractive index	viscosity [mPa·s]
[2]	1027.93	–	1.158
[3]	–	1.4188	–

C1CCOC1 [tetrahydrofuran]
Conditions	mass density [kg/m3]	refractive index	viscosity [mPa·s]
[2]	882.02	–	0.448
[3]	–	1.4047	–

CC(=O)Nc1ccc(OC(=O)c2ccccc2O)cc1 [salophen] + C1COCCO1
mass density, [1]
Conditions	m1 = 0.0106	m1 = 0.0284	m1 = 0.0495	m1 = 0.0693	m1 = 0.0855	m1 = 0.1104	m1 = 0.1313	m1 = 0.1482	m1 = 0.1707
288.15 K	1039.84 kg/m3 and 1028.52 kg/m3	1029.51 kg/m3 and 1040.81 kg/m3	1030.66 kg/m3 and 1041.93 kg/m3	1031.72 kg/m3 and 1042.96 kg/m3	1032.57 kg/m3 and 1043.79 kg/m3	1033.86 kg/m3 and 1045.04 kg/m3	1034.92 kg/m3 and 1046.05 kg/m3	1035.78 kg/m3 and 1046.86 kg/m3	1036.89 kg/m3 and 1047.91 kg/m3
308.15 K	1017.22 kg/m3	1018.23 kg/m3	1019.39 kg/m3	1020.48 kg/m3	1021.35 kg/m3	1022.68 kg/m3	1023.75 kg/m3	1024.62 kg/m3	1025.75 kg/m3
318.15 K	1005.88 kg/m3	1006.9 kg/m3	1008.09 kg/m3	1009.19 kg/m3	1010.08 kg/m3	1011.41 kg/m3	1012.5 kg/m3	1013.37 kg/m3	1014.52 kg/m3

CC(=O)N(C)C [N,N-dimethylethanamide]
Conditions	mass density [kg/m3]	refractive index	viscosity [mPa·s]
[2]	936.57	–	0.961
[3]	–	1.436	–
